Reference: patent publication US5439892A, “Dextrin sulfates as anti HIV-1 agents and composition thereof” (ML Laboratories, priority 1990, dated 1995)
Like-named read-outs stand apart in the source and are kept apart here.

Tests used:
[1] = system: HIV-1 (RF); test: microbe, parasite or virus in culture; type: cell-based; settings: for decrease in infectivity titre: RF
Experimental: The human T-leukamic cell line C8166 was grown in RPMI 1640 with 10% FCS.
Various strains of HIV-1 (RF. IIIB, CBL-4, Z84 and Z129) were produced in chronically infected H9 cells. A five-fold excess of uninfected H9 cells was added to the culture five days prior to harvesting the supernatant which is clarified by centrifugation and stored in liquid nitrogen.
Induction of cytopathic effects on CD4^+ C8166 by HIV was assayed by multi-nucleated giant cell formation (syncytia).
(§1) HIV-1 (RF) was titrated in 10-fold dilutions onto C8166 cells in the presence of varying concentrations of drug. […] The figures in the table represent the logarithm to the base 10 of the figure actually determined. For instance, a figure of -6 in the table represents a determined result of 10^-6.

[2] = system: HIV-1 (RF); type: cell-based
Description: as §1

[3] = system: HIV-1 IIIB; test: decrease in infectivity titre in C8166 cells, HIV-1 IIIB; type: cell-based; settings: for decrease in infectivity titre: IIIB, C8166 cells
[4] = system: HIV-1 CBL-4; test: decrease in infectivity titre in C8166 cells, HIV-1 CBL-4; type: cell-based; settings: for decrease in infectivity titre: CBL-4, C8166 cells
[5] = system: IIIb; test: minimum concentration inhibiting syncytia formation in M8166 JH11 cells, IIIb; type: cell-based, HIV-1; settings: 10^3 TCID
Experimental: (§2) 50 ul samples of dextran sulphate and of the 2-, 3- and 6-sulphate derivatives of dextrin of Examples 3, 1 and 2 respectively were pre-incubated at 37° C. onto duplicate cultures of 4×10^5M8166 JH11 cells per ml (50 ul) at final concentrations of […] for one hour.

[6] = system: RF; test: minimum concentration inhibiting syncytia formation in M8166 JH11 cells, RF; type: cell-based, HIV-1; settings: for inhibitory concentration (minimum concentration at which syncytia formation was <10% that of controls): RF, 10^3 TCID, M8166 JH11 cells
Experimental: as §2

[7] = system: RUT; test: minimum concentration inhibiting syncytia formation in M8166 JH11 cells, RUT; type: cell-based, HIV-1; settings: 10^2 TCID
Experimental: as §2

[8] = system: CBL20; test: minimum concentration inhibiting syncytia formation in M8166 JH11 cells, CBL20; type: cell-based, HIV-1; settings: 10^3 TCID
Experimental: as §2

[9] = system: Bovine Thrombin; test: anti-coagulant activity: clot formation time of pooled normal plasma after bovine thrombin; type: biochemical; settings: comparison among dextrin sulphates
Experimental: The materials to be tested were each dissolved in veronal buffer to a concentration of 1 mg/ml=1000 ug/ml and a further dilution of 100 ug/ml was made by a 1:10 dilution in veronal buffer. Pooled normal plasma (1 ml) was then placed into each of nine plastic tubes. The solutions containing the materials to be tested were then added to the plasma to achieve a range of final concentrations from 1-300 ug/ml, in each case the volume being made up to 1.5 ml with veronal buffer. The resultant mixtures were incubated at 37° C. for 30 minutes, following which two 0.2 ml aliquots were extracted from each sample into glass tubes (Samples A and B), and 0.1 ml 7 U Bovine Thrombin was added and clot formation timed.

[10] = system: HIV-1; test: activity against HIV-1 virus (general statement); settings: comparison among dextrin sulphates
[11] = system: HIV-1; test: inhibition of syncytia formation, overall over IIIb, RF, RUT, CBL20; type: cell-based; settings: compared with dextran sulphate (MW 8,000) and dextrin 3-sulphate
Experimental: as §2

[12] = toxicity: cell viability by [3H]-thymidine uptake in PHA-stimulated human PBL; type: cell-based; settings: human, pha-stimulated pbl, 3 days, mean of quadruplicate, read-out: Thymidine uptake (% of control with no drug)
Experimental: (§3) Normal human peripheral blood lymphocytes (PBL) were fractionated on Ficoll-Hypaque (Pharmacia Chemicals, Uppsala, Sweden) from venous blood collected in preservative-free heparin. They were mitogenetically stimulated with phytohaemaglutinin (PHA) (1 ug/ml) for 3 days and maintained in the medium RPMI 1640 supplemented by 20% foetal calf serum (FCS)+interleukin-2 (IL2) ([…]).
(§4) The relative toxicities of the materials tested in example 4 were evaluated by reference to cell viability in the presence of the drugs as measured by the relative uptake of [^3 H]- thymidine. Human PBL (10^6 cells/well) in 96 microtitre plates was stimulated with PHA in the presence of increasing concentration of drug for 3 days. Following a 5 hour probe with [^3 H]- thymidine (0.5 uCi/well), the cells were harvested and counted. The results shown represent the mean of quadruplicate experiments and are presented as the percentage incorporation of [^3 H]-thymidine in the presence of drug, compared to control experiments without drug.

[13] = system: Human PBL; test: as above; type: cell-based; settings: around 200 ug/ml
Experimental: as §3, §4

[14] = 1.0 ug/ml, HIV-1 (RF), C8166 cells
[15] = 10 ug/ml, HIV-1 (RF), C8166 cells
[16] = 100 ug/ml, HIV-1 (RF), C8166 cells
[17] = 0.1 ug/ml, HIV-1 (RF), C8166 cells
[18] = Human immunodeficiency virus 1, C8166, read-out: decrease in infectivity titre
[19] = Human immunodeficiency virus 1, IIIB, C8166, read-out: decrease in infectivity titre

| Compound | Final dilution of the virus at which syncytia are produced (logarithm to the base 10) [1, 14] | Final dilution of the virus at which syncytia are produced (logarithm to the base 10) [1, 15] | Final dilution of the virus at which syncytia are produced (logarithm to the base 10) [1, 16] | Inhibition of HIV-1 (RF), live cell (C8166) reduction of MTT, estimated visually ([2]; 1.0 ug/ml) | Inhibition of HIV-1 (RF), live cell (C8166) reduction of MTT, estimated visually ([2]; 10 ug/ml) | inhibitory concentration (minimum concentration at which syncytia formation was <10% that of controls) [5] [µg/µL] | inhibitory concentration (minimum concentration at which syncytia formation was <10% that of controls) [6] [µg/µL] | inhibitory concentration (minimum concentration at which syncytia formation was <10% that of controls) [7] [µg/µL] | inhibitory concentration (minimum concentration at which syncytia formation was <10% that of controls) [8] [µg/µL] | anti-coagulant activity in words [9] | anti-HIV activity in words [10] | overall effectiveness [11] | Final dilution of the virus at which syncytia are produced (logarithm to the base 10) [1, 17] | further results |
| --- | --- | --- | --- | --- | --- | --- | --- | --- | --- | --- | --- | --- | --- | --- |
| dextrin 2-sulphate | -4 | -2 | -2 | - | - | 5 | 5 | 5 | 50 | least anti-coagulant | about the same activity against the HIV-1 virus as the dextrin 6sulphate | overall greater effectiveness |  | inhibition (reduction of the infectious titre) ([1]; 1 ug/ml, HIV-1 (RF), C8166 cells): 2 logs; reduction of the infectious titre [1, 15]: 3 logs; decrease in infectivity titre ([1]; 10 ug/ml, C8166 cells): 5 log units; decrease in infectivity titre ([1]; 50 ug/ml, C8166 cells): 6 log units; inhibition of syncytial induction on C8166 cells ([1]; compared with AZT and dextran sulphate): inhibits syncytial induction on C8166 cells with greater effect than either AZT or dextran sulphate; decrease in infectivity titre ([3]; 10 ug/ml): 3 log units; decrease in infectivity titre ([3]; 50 ug/ml): 5 log units; decrease in infectivity titre ([4]; 10 ug/ml): 0 log units; decrease in infectivity titre ([4]; 50 ug/ml): 4 log units |
| dextrin 6-sulphate |  |  |  |  |  | 5 | 5 | 50 | > 50 | greater anti-coagulant activity |  | overall greater effectiveness |  |  |
| Cc1cn([C@H]2C[C@H](N=[N+]=[N-])[C@@H](CO)O2)c(=O)[nH]c1=O [AZT, zidovidine] | -3.5 | -3 | -3 | - | - |  |  |  |  |  |  |  | -4 | log reduction at 10 µg/mL [1, 18]: 3; log reduction at 50 µg/mL [1, 18]: 3; log reduction at 1 µg/mL ([1]; Human immunodeficiency virus 1, C8166, read-out: inhibition (reduction of the infectious titre)): 2.5; log reduction at 10 µg/mL ([1]; Human immunodeficiency virus 1, C8166, read-out: reduction of the infectious titre): 3; Inhibition of HIV-1 (RF), live cell (C8166) reduction of MTT, estimated visually ([2]; 0.1 ug/ml): -; log reduction at 10 µg/mL [3, 19]: 4; log reduction at 50 µg/mL [3, 19]: 4; log reduction at 10 µg/mL [4, 18]: 4; log reduction at 50 µg/mL [4, 18]: 4; viability at 72 h ([12]; 5 ug/ml): 20%; viability at 72 h ([12]; 10 ug/ml): 15%; viability at 72 h ([12]; 25 ug/ml): 5%; viability at 72 h ([12]; 50 ug/ml): 2%; viability at 72 h ([12]; 71 ug/ml): 1%; viability at 72 h ([12]; 100 ug/ml): 1%; viability at 72 h ([12]; 200 ug/ml): 0%; toxicity in words [13]: very highly toxic |
| dextrin 3-sulphate |  |  |  |  |  | 50 | 5 | 50 | > 50 | least anti-coagulant | relatively poor anti-HIV activity, by comparison with dextrin 2- and 6-sulphates |  |  | effectiveness against RF ([6]; compared with dextran sulphate (MW 8,000)): more effective than dextran sulphate against RF |
| Dextran | -6 | -6 |  |  | - |  |  |  |  |  |  |  | -6 | effect against HIV replication ([1]; HIV-1 (RF), C8166 cells): ineffective against HIV replication |
